Assay results as given in patent US7432398B2, “Inorganic acid salts of sibutramine” (CJ Corporation, priority 2005, dated 2008).
Counter-ions that a name gives are not always drawn.

Assays:
[1] = Evaluation of hygroscopicity: water content (K.F.) after exposure to humid conditions; type: physicochemical; conditions: for change in water content under humid conditions: 75% and 90% RH, up to 1 week
Experimental: Then, the water content (K.F. water %) of the samples was measured.

[2] = Stability on stringent 60° C. heat treatment (HPLC content); conditions: for chemical stability at high temperature: 60° C. heat treatment
Experimental: The inorganic acid salts of sibutramine, prepared in Examples 1, 2 and 3, and sibutramine hydrochloride monohydrate were exposed to a stringent 60° C. heat treatment.
HPLC was performed under the following conditions. Wavelength of UV detection: 225 nm
Column: octadecyl silica gel, C18 (4.6×150 mm, 5 μm)

[3] = Light stability test, fluorescent light at 25° C., ICH chamber (HPLC content); type: physicochemical
Experimental: A light stability test was performed as follows.

[4] = Evaluation of solubility in solutions having various pH values
Description: In Table 8, the solubility is expressed as milligrams (mg) of sibutramine dissolved per milliliter (ml) of solution.

[5] = 75% relative humidity, 25 °C, 1 week
[6] = 75% relative humidity, 25 °C, 3 days
[7] = 90% relative humidity, 25 °C, 1 week
[8] = 90% relative humidity, 25 °C, 3 days
[9] = fluorescent light, 25° C., 1 wk
[10] = fluorescent light, 25° C., 2 wks
[11] = fluorescent light, 25° C., 4 wks

Compound | change in water content under humid conditions [1] | water content (K.F. water %) [1, 5] [%] | water content (K.F. water %) [1, 6] [%] | water content (K.F. water %) [1, 7] [%] | water content (K.F. water %) [1, 8] [%] | water content (K.F. water %) ([1]; Initial) [%] | chemical stability at high temperature [2] | content (HPLC) on 60° C. heat treatment ([2]; 60° C., 1 wk) | content (HPLC) on 60° C. heat treatment ([2]; 60° C., 2 wks) | content (HPLC) on 60° C. heat treatment ([2]; 60° C., 4 wks) | content (HPLC) on 60° C. heat treatment ([2]; Initial) | content (HPLC) on exposure to fluorescent light ([3]; Initial) | content (HPLC) on exposure to fluorescent light [3, 9] | content (HPLC) on exposure to fluorescent light [3, 10] | content (HPLC) on exposure to fluorescent light [3, 11] | further results
sibutramine hydrogen sulfate | almost no change in water content | 0.01 | 0.02 | 0.03 | 0.03 | 0.02 | good chemical stability | 1.000 | 0.999 | 0.999 | 1.000 | 1.000 | 1.000 | 1.000 | 0.999 | –
sibutramine phosphate monohydrate [Sibutramine phosphate hydrate] | almost no change in water content | 4.25 | 4.24 | 4.26 | 4.25 | 4.25 | good chemical stability | 1.000 | 0.999 | 1.000 | 1.000 | 1.000 | 1.000 | 0.999 | 0.999 | –
CC(C)CC(N(C)C)C1(c2ccc(Cl)cc2)CCC1 (stereo not shown) [Sibutramine HCl hydrate, sibutramine hydrochloride monohydrate, reference compound] | almost no change in water content | 5.5 | 5.49 | 5.49 | 5.5 | 5.5 | good chemical stability | 1.000 | 0.999 | 0.999 | 1.000 | 1.000 | 1.000 | 0.999 | 0.999 | light stability ([3]; fluorescent light, 25° C., content by HPLC): good light stability
sibutramine bromate | almost no change in water content | 0.09 | 0.09 | 0.08 | 0.08 | 0.09 | good chemical stability | 0.999 | 1.000 | 0.999 | 1.000 | 1.000 | 1.000 | 0.999 | 0.999 | solubility (mg of sibutramine dissolved per ml of solution) ([4]; DW (distilled water), dissolved at 37° C.): 12.78 mg/mL; solubility (mg of sibutramine dissolved per ml of solution) ([4]; pH 1.2, dissolved at 37° C.): 12.43 mg/mL; solubility (mg of sibutramine dissolved per ml of solution) ([4]; pH 4.0, dissolved at 37° C.): 3.64 mg/mL; solubility (mg of sibutramine dissolved per ml of solution) ([4]; pH 5.3, dissolved at 37° C.): 8.96 mg/mL; solubility (mg of sibutramine dissolved per ml of solution) ([4]; pH 6.8, dissolved at 37° C.): 11.08 mg/mL; solubility (mg of sibutramine dissolved per ml of solution) ([4]; pH 7.4, dissolved at 37° C.): 12.41 mg/mL
